Reference: patent US9447108B2 (SZEGEDI TUDOMÁNYEGYETEM, priority 2013, dated 2016)

Legend:
μ-opioid receptors = molecular target: T1, μ-opioid receptors (Rattus norvegicus, UniProt P33535); assay: Receptor binding assay, [3H]DAMGO displacement in rat brain membranes
T1 construct: A crude membrane fraction was prepared from Wistar rat brains and spinal cords; from tissue; host or cells: Wistar rat brain (without cerebellum), crude membrane fraction

rats = assay: Behavioral nociceptive testing, paw-withdrawal test (PWD), heat pain threshold; assay type: in vivo, rat
Experimental: The paw-withdrawal test (PWD) was used to measure the heat pain threshold after the treatments. A detailed description of this model was published by Hargreaves et al. (Hargreaves, K.; Dubner, R.; Brown, F.; Flores, C.; Joris, J. Pain; 32, 77 1988). Briefly, rats were placed on a glass surface in a plastic chamber and were allowed to acclimatize to their environment for 15-30 min before testing. The baseline hind paw-withdrawal latencies (baseline values at 0 min determined two times) were then obtained. A heat stimulus was directed onto the plantar surface of each hind paw and the intensity of the thermal stimulus was adjusted to derive an average baseline latency of approximately 10 s (cut-off time 20 s). Then the animals were treated subcutaneously with different doses of ligands (0.3-10 mg/kg). The nociceptive threshold was determined at 15-min intervals for 120 min.
Data are presented as means±SEM. The mean of the two sides and the mean of two time points (15-30; 45-60; 75-90 and […]) were evaluated. The results were analyzed using a two-way ANOVA (ANalysis Of VAriances) (factors: treatment and time with repeated measurements). Subsequent analysis was performed using Fisher-LSD test. A p-value less than 0.05 was considered significant. Data were analyzed using […] 7.1. software (Statsoft Inc., Tulsa, Okla.).

δ-opioid receptors = molecular target: T2, δ-opioid receptors (Rattus norvegicus, UniProt P33533); assay: Receptor binding assay, [3H]Ile5,6-deltorphin-2 displacement in rat brain membranes; details: [3H]Ile5,6-deltorphin-2, rat brain membranes; read-out: Ki^δ
T2 construct: A crude membrane fraction was prepared from Wistar rat brains and spinal cords; from tissue; host or cells: Wistar rat brain (without cerebellum), crude membrane fraction
T2 sequence (P33533 whole entry): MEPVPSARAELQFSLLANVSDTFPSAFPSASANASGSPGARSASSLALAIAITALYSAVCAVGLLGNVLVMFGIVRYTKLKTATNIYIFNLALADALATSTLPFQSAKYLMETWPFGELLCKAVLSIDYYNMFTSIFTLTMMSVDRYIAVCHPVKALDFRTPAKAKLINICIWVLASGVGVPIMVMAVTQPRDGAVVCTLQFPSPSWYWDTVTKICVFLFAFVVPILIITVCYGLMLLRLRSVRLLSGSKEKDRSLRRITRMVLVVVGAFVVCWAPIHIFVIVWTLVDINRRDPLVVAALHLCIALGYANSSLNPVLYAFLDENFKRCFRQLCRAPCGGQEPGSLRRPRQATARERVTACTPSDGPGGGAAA

T1 sequence (P33535 whole entry): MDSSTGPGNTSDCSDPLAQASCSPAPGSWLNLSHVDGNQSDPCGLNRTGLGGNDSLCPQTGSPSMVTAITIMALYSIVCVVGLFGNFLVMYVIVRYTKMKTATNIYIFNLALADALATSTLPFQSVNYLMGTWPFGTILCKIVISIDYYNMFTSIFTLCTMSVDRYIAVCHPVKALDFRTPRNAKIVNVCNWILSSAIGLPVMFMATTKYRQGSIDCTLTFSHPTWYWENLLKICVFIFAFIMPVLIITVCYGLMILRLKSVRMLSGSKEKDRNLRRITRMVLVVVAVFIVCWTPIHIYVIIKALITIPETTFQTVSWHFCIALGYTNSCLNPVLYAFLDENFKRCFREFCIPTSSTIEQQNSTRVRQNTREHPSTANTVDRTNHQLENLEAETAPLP

Substance: (5α,6α,7β,8β)-4,5-epoxy-3-ethoxy-6-hydroxy-17-methyl-(7,8-^2H2)-morphinan [Example 3]
- Ki (μ-opioid receptors; [3H]DAMGO, rat brain membranes, read-out: Ki^μ): 0.205 ± 0.0631 µM
- Ki^δ/Ki^μ (μ-opioid receptors; selectivity ratio δ/μ): 30
- Time course of the antinociceptive effects (paw-withdrawal latency) (rats; 3 mg/kg s.c., 0 min (baseline)): 10.0 s
- Time course of the antinociceptive effects (paw-withdrawal latency) (rats; 3 mg/kg s.c., 30 min): 12.2 s
- Time course of the antinociceptive effects (paw-withdrawal latency) (rats; 3 mg/kg s.c., 60 min): 11.6 s
- Time course of the antinociceptive effects (paw-withdrawal latency) (rats; 3 mg/kg s.c., 90 min): 11.4 s
- Time course of the antinociceptive effects (paw-withdrawal latency) (rats; 3 mg/kg s.c., 120 min): 11.1 s
- Time course of the antinociceptive effects (paw-withdrawal latency) (rats; 10 mg/kg s.c., 0 min (baseline)): 10.1 s
- Time course of the antinociceptive effects (paw-withdrawal latency) (rats; 10 mg/kg s.c., 30 min): 12.1 s
- Time course of the antinociceptive effects (paw-withdrawal latency) (rats; 10 mg/kg s.c., 60 min): 13.1 s
- Time course of the antinociceptive effects (paw-withdrawal latency) (rats; 10 mg/kg s.c., 90 min): 12.9 s
- Time course of the antinociceptive effects (paw-withdrawal latency) (rats; 10 mg/kg s.c., 120 min): 11.1 s
- antinociceptive effect compared to non-deuterated analogues (rats; 10 mg/kg s.c., in words): increased and prolonged the effect
- antinociception, potency and dose dependence (rats; s.c., 0.3-10 mg/kg, in words): lower potency
- Ki (δ-opioid receptors): 6.12 ± 0.845 µM
